Source: patent US7888464B2, “Hepatitis C virus inhibitors” (Bristol-Myers Squibb Company, priority 2006, dated 2011)

Test system: HCV replicon (strain 1b) in HUH-7 cells
Test: HCV replicon FRET assay
Type: cell-based
Conditions: Hepatitis C virus, Huh-7, read-out: EC50 in the replicon FRET assay
Excerpt: An HCV replicon whole cell system was established as described by Lohmann V, Korner F, Koch J, Herian U, Theilmann L, Bartenschlager R., Science 285(5424): 110-3 (1999). This system enabled us to evaluate the effects of our HCV Protease compounds on HCV RNA replication. Briefly, using the HCV strain 1b sequence described in the Lohmann paper (Assession number: AJ238799), an HCV cDNA was synthesized by Operon Technologies, Inc. (Alameda, Calif.), and the full-length replicon was then assembled in plasmid pGem9zf(+) (Promega, Madison, Wis.) using standard molecular biology techniques. The replicon consists of (i) the HCV 5′ UTR fused to the first 12 amino acids of the capsid protein, (ii) the neomycin phosphotransferase gene (neo), (iii) the IRES from encephalomyocarditis virus (EMCV), and (iv) HCV NS3 to NS5B genes and the HCV 3′ UTR. Plasmid DNAs were linearized with ScaI and RNA transcripts were synthesized in vitro using the T7 MegaScript transcription kit (Ambion, Austin, Tex.) according to manufacturer's directions. In vitro transcripts of the cDNA were transfected into the human hepatoma cell line, HUH-7. […] Resulting cell lines were characterized for positive and negative strand RNA production and protein production over time.
The HCV replicon FRET assay was developed to monitor the inhibitory effects of compounds described in the disclosure on HCV viral replication. HUH-7 cells, constitutively expressing the HCV replicon, were grown in Dulbecco's Modified Eagle Media (DMEM) (Gibco-BRL) containing 10% Fetal calf serum (FCS) (Sigma) and 1 mg/ml G418 (Gibco-BRL). Cells were seeded the night before (1.5×10^4 cells/well) in 96-well tissue-culture sterile plates. Compound and no compound controls were prepared in DMEM containing 4% FCS, 1:100 Penicillin/Streptomysin (Gibco-BRL), 1:100 L-glutamine and 5% DMSO in the dilution plate (0.5% DMSO final concentration in the assay). Compound/DMSO mixes were added to the cells and incubated for 4 days at 37° C. After 4 days, cells were first assessed for cytotoxicity using alamar Blue (Trek Diagnotstic Systems) for a CC50 reading. The toxicity of compound (CC50) was determined by adding 1/10th volume of alamar Blue to the media incubating the cells. After 4 h, the fluorescence signal from each well was read, with an excitation wavelength at 530 nm and an emission wavelength of 580 nm, using the Cytofluor Series 4000 (Perspective Biosystems). Plates were then rinsed thoroughly with Phosphate-Buffered Saline (PBS) (3 times 150 μl). The cells were lysed with 25 μl of a lysis assay reagent containing an HCV protease substrate (5× cell Luciferase cell culture lysis reagent (Promega #E153A) diluted to 1× with distilled water, NaCl added to 150 mM final, the FRET peptide substrate (as described for the enzyme assay above) diluted to 10 μM final from a 2 mM stock in 100% DMSO. The plate was then placed into the Cytofluor 4000 instrument which had been set to 340 nm excitation/490 nm emission, automatic mode for 21 cycles and the plate read in a kinetic mode. EC50 determinations were carried out as described for the IC50 determinations.

Question: `C=C[C@@H]1C[C@]1(NC(=O)[C@@H]1C[C@@](O)(c2ccc(-c3ccccc3)cc2)CN1C(=O)[C@@H](NC(=O)OC(C)(C)C)C(C)(C)C)C(=O)NS(=O)(=O)C1CC1` [Compound 3] was tested. Which EC50 did it give?
Answer: 11 nM
